Measured values reported in article PMC7724566, “Prospects for Clinical Development of Stat5 Inhibitor IST5-002: High Transcriptomic Specificity in Prostate Cancer and Low Toxicity In Vivo” (Cancers, 2020).

What was measured:
CWR22Pc cells = assay: RNA-seq transcriptome, IST5 vs. genetic Stat5 knockdown; type: cell-based, human; details: 3 days
Excerpt: In order to evaluate the potential of IST5 for further optimization for clinical development, we compared the IST5-induced transcriptome to that of Stat5 genetic knockdown in PC cells. Stat5 expression was inhibited by lenti-viral expression of shStat5 or shCtrl in CWR22Pc cells for 3 days (Figure 2A). CWR22Pc cells were chosen as the model system because the cell line expresses both Stat5 and androgen receptor and mimics the course of disease progression in PC patient. When grown in mice as xenograft tumors, CWR22Pc cells form androgen-dependent tumors which regress in response to androgen deprivation but later recur as Castrate-Resistant Prostate Cancer (CRPC) tumors. In parallel wells, CWR22Pc cells were treated with IST5 or vehicle for 3 days. We performed RNA-seq to profile the gene expression changes and received an average of 22.4 million paired-end clean reads from each sample (Table S5). […] Most importantly, the similarity between the transcriptomes regulated by shStat5 vs. IST5 was remarkably high, with Pearson correlation coefficient ranging from 0.98–0.99 (Figure 2C).
Figure 2 IST5 show high transcriptional specificity in prostate cancer cells. […]
Total RNA of each replicate sample was isolated using RNeasy Micro Kit (QIAGEN, Valencia, CA, USA) and reverse transcribed with Super-Script III Reverse Transcriptase (Life Technologies, Brown Deer, WI, USA) following the manufacturer’s instructions. […] RNA quality was assessed by Agilent Bioanalyzer 2100 (Agilent, Santa Clara, CA, USA), and RNA integrity number (RIN) ≥7.5 was qualified for subsequent RNA-seq analysis.
We performed RNA-seq to evaluate the transcriptomes regulated by IST5 vs. genetic knockdown (lenti-shStat5) of Stat5 with corresponding controls (vehicle or lenti-shCtrl). […] Sequencing data (fastq files) were quantified with a software tool Salmon (version 1.1.0). […] Transcripts with less than 10 median read-counts were filtered out. […] Statistical significance was determined at a FDR threshold <0.01. […]

athymic nude mice = assay: Acute toxicity study, plasma biochemistry; type: in vivo; details: for ALT / AST / Albumin / Alk.Ptase / BUN / Bile Acid / Chol / Globulin / TBIL: plasma
Protocol: The acute toxicity study of the compound IST5 was carried out in athymic nude mice (8 weeks) (Crl:NU/NCr-Foxn1n) of either sex (n = 8/dose group, 4 of each sex). IST5 compound was administered once (0, 10, 30, and 100 mg/kg) via single intra-peritoneal (i.p.) injection, and the mice in the vehicle (0 mg/kg) group received each a single i.p. injection of 0.3% hydroxypropyl cellulose. Plasma samples were analyzed for liver (AST, […], alkaline phosphatase, total bilirubin, bile acid) and kidney functions (BUN, albumin, globulin and albumin-globulin ratio) (Marshfields Labs, WI, USA).
The following clinical chemistry parameters were measured: Aspartate aminotransferase (AST), alanine aminotransferase (ALT), sorbitol dehydrogenase (SDH), alkaline phosphatase (ALP), γ-glutamyltransferase (GGT), lactate dehydrogenase (LDH), bilirubin (TBIL), protein (TP), glucose (GLU), blood urea nitrogen (BUN), creatinine (CREAT), and electrolytes (Na, K, Cl, Ca, CO2).

[1] = 6 µM, FDR <0.01, fold change >2 or <−2

**Q.** With `O=P(O)(O)OCC1OC(n2cnc3c(NCc4ccccc4)ncnc32)C(O)C1O` (stereo not shown) [IST5] as the molecule, how does the transcripts down-regulated (CWR22Pc cells; [1]) read?
**A.** 765

**Q.** What about the transcripts upregulated (CWR22Pc cells; [1]) of the same molecule?
**A.** 324

**Q.** And the “Pearson correlation coefficient of transcriptomes regulated by shStat5 vs. IST5” value (CWR22Pc cells; IST5 6 µM)?
**A.** 0.98–0.99

**Q.** What about the BW (athymic nude mice; single i.p. 10 mg/kg) of the same molecule?
**A.** 22.8 ± 0.79 g

**Q.** And the ALT (athymic nude mice; single i.p. 10 mg/kg)?
**A.** 62.1 ± 11.0 U/L

**Q.** What about the AST (athymic nude mice; single i.p. 10 mg/kg) of the same molecule?
**A.** 284 ± 78.7 U/L

**Q.** What about the Albumin (athymic nude mice; single i.p. 10 mg/kg) of the same molecule?
**A.** 3.25 ± 0.01 g/dL

**Q.** And the Alk.Ptase (athymic nude mice; single i.p. 10 mg/kg)?
**A.** 43.17 ± 3.5 U/L

**Q.** What about the BUN (athymic nude mice; single i.p. 10 mg/kg) of the same molecule?
**A.** 27.67 ± 1.4

**Q.** What about the “Bile Acid” value (athymic nude mice; single i.p. 10 mg/kg) of the same molecule?
**A.** 0.88 ± 0.40 µmol/dL

**Q.** And the Chol (athymic nude mice; single i.p. 10 mg/kg)?
**A.** 67.80 ± 5.0 mg/dL

**Q.** And the Globulin (athymic nude mice; single i.p. 10 mg/kg)?
**A.** 1.4 ± 0.01

**Q.** What about the TBIL (athymic nude mice; single i.p. 10 mg/kg) of the same molecule?
**A.** 0.51 ± 0.10 mg/dL

**Q.** What about the BW (athymic nude mice; single i.p. 30 mg/kg) of the same molecule?
**A.** 21.9 ± 089 g

**Q.** And the ALT (athymic nude mice; single i.p. 30 mg/kg)?
**A.** 100 ± 23.9 U/L

**Q.** And the AST (athymic nude mice; single i.p. 30 mg/kg)?
**A.** 488 ± 168 U/L

**Q.** What about the Albumin (athymic nude mice; single i.p. 30 mg/kg) of the same molecule?
**A.** 4.16 ± 0.59 g/dL

**Q.** And the Alk.Ptase (athymic nude mice; single i.p. 30 mg/kg)?
**A.** 57.0 ± 6.82 U/L

**Q.** What about the BUN (athymic nude mice; single i.p. 30 mg/kg) of the same molecule?
**A.** 29.6 ± 1.79

**Q.** What about the “Bile Acid” value (athymic nude mice; single i.p. 30 mg/kg) of the same molecule?
**A.** 3.35 ± 2.87 µmol/dL

**Q.** What about the Chol (athymic nude mice; single i.p. 30 mg/kg) of the same molecule?
**A.** 182 ± 57.8 mg/dL

**Q.** And the Globulin (athymic nude mice; single i.p. 30 mg/kg)?
**A.** 1.4 ± 0.08

**Q.** What about the TBIL (athymic nude mice; single i.p. 30 mg/kg) of the same molecule?
**A.** 1.16 ± 0.43 mg/dL

**Q.** And the BW (athymic nude mice; single i.p. 100 mg/kg)?
**A.** 22.0 ± 0.97 g

**Q.** What about the HCT (athymic nude mice; single i.p. 100 mg/kg) of the same molecule?
**A.** 0.44 ± 0.01 L/L

**Q.** What about the ALT (athymic nude mice; single i.p. 100 mg/kg) of the same molecule?
**A.** 73.2 ± 15.4 U/L

**Q.** What about the AST (athymic nude mice; single i.p. 100 mg/kg) of the same molecule?
**A.** 377 ± 96.7 U/L

**Q.** What about the Albumin (athymic nude mice; single i.p. 100 mg/kg) of the same molecule?
**A.** 3.32 ± 0.15 g/dL

**Q.** What about the Alk.Ptase (athymic nude mice; single i.p. 100 mg/kg) of the same molecule?
**A.** 55.8 ± 5.42 U/L

**Q.** And the BUN (athymic nude mice; single i.p. 100 mg/kg)?
**A.** 28.6 ± 1.14

**Q.** And the “Bile Acid” value (athymic nude mice; single i.p. 100 mg/kg)?
**A.** 2.52 ± 1.28 µmol/dL

**Q.** What about the Chol (athymic nude mice; single i.p. 100 mg/kg) of the same molecule?
**A.** 89.4 ± 5.91 mg/dL

**Q.** And the Globulin (athymic nude mice; single i.p. 100 mg/kg)?
**A.** 1.28 ± 0.10

**Q.** What about the TBIL (athymic nude mice; single i.p. 100 mg/kg) of the same molecule?
**A.** 0.62 ± 0.09 mg/dL
